{"source": "PubChem BioAssay AID2060908", "about": "(Molecular Pharmacology Branch, DTP, NCI, 2025);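 also: spheroids exposed to compounds for 7 days before viability read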", "test_system": "186277-243-T-J2-PDC complex spheroids, viability", "test": "Anticancer human tumor 186277-243-T-J2-PDC patient-derived colon adenocarcinoma cell line growth inhibition [RAS]", "details": "for IC50: curve of first compound; for viability, T/C: stronger effect = lower value", "method_in_brief": "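Tumour cells grown as complex spheroids with HUVEC endothelial cells and mesenchymal stem cells, treated with RAS pathway inhibitor combinations. Each agent spans half-log steps from near clinical Cmax, or 10 microM where Cmax is unknown.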", "data": [{"smiles": "C=CC(=O)Nc1cc(Nc2nccc(-c3cn(C)c4ccccc34)n2)c(OC)cc1N(C)CCN(C)C", "note": "+ CCn1c(-c2cccnc2C(C)OC)c2c3cc(ccc31)N1CCOC(CC(NC(=O)C(C(C)C)N(C)C(=O)C3(F)CCN(C(=O)C#CC(C)(C)N(C)C)CC3)C(=O)N3CCCC(N3)C(=O)OCC(C)(C)C2)C1", "values": [{"measurement": "IC50", "setting": "second compound 0.000949 µM", "value": "> 1000", "unit": "nM"}, {"measurement": "IC50", "setting": "second compound 0.003 µM", "value": "> 1000", "unit": "nM"}, {"measurement": "IC50", "setting": "second compound 0.00949 µM", "value": "> 1000", "unit": "nM"}, {"measurement": "IC50", "setting": "second compound 0.03 µM", "value": "> 1000", "unit": "nM"}, {"measurement": "IC50", "setting": "second compound 0.0949 µM", "value": "> 1000", "unit": "nM"}, {"measurement": "IC50", "setting": "second compound 0.3 µM", "value": "> 1000", "unit": "nM"}, {"measurement": "viability, T/C", "setting": "second compound 0.000949 µM, first compound 0.00316 µM", "value": 94.2, "unit": "%"}, {"measurement": "viability, T/C", "setting": "second compound 0.000949 µM, first compound 0.01 µM", "value": 86.9, "unit": "%"}, {"measurement": "viability, T/C", "setting": "second compound 0.000949 µM, first compound 0.0316 µM", "value": 90.4, "unit": "%"}, {"measurement": "viability, T/C", "setting": "second compound 0.000949 µM, first compound 0.1 µM", "value": 83.8, "unit": "%"}, {"measurement": "viability, T/C", "setting": "second compound 0.000949 µM, first compound 0.316 µM", "value": 103, "unit": "%"}, {"measurement": "viability, T/C", "setting": "second compound 0.000949 µM, first compound 1 µM", "value": 95.7, "unit": "%"}, {"measurement": "viability, T/C", "setting": "second compound 0.003 µM, first compound 0.00316 µM", "value": 101, "unit": "%"}, {"measurement": "viability, T/C", "setting": "second compound 0.003 µM, first compound 0.01 µM", "value": 107, "unit": "%"}, {"measurement": "viability, T/C", "setting": "second compound 0.003 µM, first compound 0.0316 µM", "value": 107, "unit": "%"}, {"measurement": "viability, T/C", "setting": "second compound 0.003 µM, first compound 0.1 µM", "value": 109, "unit": "%"}, {"measurement": "viability, T/C", "setting": "second compound 0.003 µM, first compound 0.316 µM", "value": 110, "unit": "%"}, {"measurement": "viability, T/C", "setting": "second compound 0.003 µM, first compound 1 µM", "value": 91.6, "unit": "%"}, {"measurement": "viability, T/C", "setting": "second compound 0.00949 µM, first compound 0.00316 µM", "value": 116, "unit": "%"}, {"measurement": "viability, T/C", "setting": "second compound 0.00949 µM, first compound 0.01 µM", "value": 107, "unit": "%"}, {"measurement": "viability, T/C", "setting": "second compound 0.00949 µM, first compound 0.0316 µM", "value": 111, "unit": "%"}, {"measurement": "viability, T/C", "setting": "second compound 0.00949 µM, first compound 0.1 µM", "value": 104, "unit": "%"}, {"measurement": "viability, T/C", "setting": "second compound 0.00949 µM, first compound 0.316 µM", "value": 121, "unit": "%"}, {"measurement": "viability, T/C", "setting": "second compound 0.00949 µM, first compound 1 µM", "value": 81, "unit": "%"}, {"measurement": "viability, T/C", "setting": "second compound 0.03 µM, first compound 0.00316 µM", "value": 96.9, "unit": "%"}, {"measurement": "viability, T/C", "setting": "second compound 0.03 µM, first compound 0.01 µM", "value": 97.4, "unit": "%"}, {"measurement": "viability, T/C", "setting": "second compound 0.03 µM, first compound 0.0316 µM", "value": 106, "unit": "%"}, {"measurement": "viability, T/C", "setting": "second compound 0.03 µM, first compound 0.1 µM", "value": 91.8, "unit": "%"}, {"measurement": "viability, T/C", "setting": "second compound 0.03 µM, first compound 0.316 µM", "value": 101, "unit": "%"}, {"measurement": "viability, T/C", "setting": "second compound 0.03 µM, first compound 1 µM", "value": 82.2, "unit": "%"}, {"measurement": "viability, T/C", "setting": "second compound 0.0949 µM, first compound 0.00316 µM", "value": 109, "unit": "%"}, {"measurement": "viability, T/C", "setting": "second compound 0.0949 µM, first compound 0.01 µM", "value": 123, "unit": "%"}, {"measurement": "viability, T/C", "setting": "second compound 0.0949 µM, first compound 0.0316 µM", "value": 119, "unit": "%"}, {"measurement": "viability, T/C", "setting": "second compound 0.0949 µM, first compound 0.1 µM", "value": 123, "unit": "%"}, {"measurement": "viability, T/C", "setting": "second compound 0.0949 µM, first compound 0.316 µM", "value": 106, "unit": "%"}, {"measurement": "viability, T/C", "setting": "second compound 0.0949 µM, first compound 1 µM", "value": 78.3, "unit": "%"}, {"measurement": "viability, T/C", "setting": "second compound 0.3 µM, first compound 0.00316 µM", "value": 105, "unit": "%"}, {"measurement": "viability, T/C", "setting": "second compound 0.3 µM, first compound 0.01 µM", "value": 105, "unit": "%"}, {"measurement": "viability, T/C", "setting": "second compound 0.3 µM, first compound 0.0316 µM", "value": 109, "unit": "%"}, {"measurement": "viability, T/C", "setting": "second compound 0.3 µM, first compound 0.1 µM", "value": 103, "unit": "%"}, {"measurement": "viability, T/C", "setting": "second compound 0.3 µM, first compound 0.316 µM", "value": 82.8, "unit": "%"}, {"measurement": "viability, T/C", "setting": "second compound 0.3 µM, first compound 1 µM", "value": 73.1, "unit": "%"}]}]}
